14 molecules from publication PMC7344628, “Bone-Seeking Matrix Metalloproteinase Inhibitors for the Treatment of Skeletal Malignancy” (Pharmaceuticals, 2020) can be followed below.

Like-named read-outs stand apart in the source and are kept apart here.

Assay in all cases: fluorogenic peptide substrate assay
Holding throughout (assay type): biochemical

In one experiment the target is T1, MMP-9 (Homo sapiens, UniProt P14780).
T1 construct: gene MMP9
From the text:
fluorogenic peptide substrate assay on MMP-9

The target of another experiment is T2, MMP-13 (Homo sapiens, UniProt P45452).
T2 construct: gene MMP13
An excerpt: fluorogenic peptide substrate assay on MMP-13

In the next experiment the target is T3, MMP-2 (Homo sapiens, UniProt P08253).
T3 construct: gene MMP2
T3 sequence (P08253 110-446 limits assumed): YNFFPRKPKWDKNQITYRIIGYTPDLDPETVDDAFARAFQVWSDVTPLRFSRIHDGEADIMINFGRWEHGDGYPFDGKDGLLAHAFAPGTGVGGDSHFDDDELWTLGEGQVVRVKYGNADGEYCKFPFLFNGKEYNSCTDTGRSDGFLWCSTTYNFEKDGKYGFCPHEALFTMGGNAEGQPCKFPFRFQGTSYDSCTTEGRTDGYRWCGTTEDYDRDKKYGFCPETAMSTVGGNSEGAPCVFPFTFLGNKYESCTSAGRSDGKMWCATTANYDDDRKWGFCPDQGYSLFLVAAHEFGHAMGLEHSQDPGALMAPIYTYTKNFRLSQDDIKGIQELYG
From the text: fluorogenic peptide substrate assay on MMP-2

In the next experiment the target is T4, MMP-8 (Homo sapiens, UniProt P22894).
T4 construct: gene MMP8
T4 sequence (P22894 100-262 limits assumed): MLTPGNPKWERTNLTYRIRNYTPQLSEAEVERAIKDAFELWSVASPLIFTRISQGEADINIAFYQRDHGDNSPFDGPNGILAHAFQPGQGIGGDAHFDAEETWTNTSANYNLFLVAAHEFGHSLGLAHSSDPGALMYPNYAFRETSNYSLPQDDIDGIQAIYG
An excerpt:
fluorogenic peptide substrate assay on MMP-8

T1 sequence (P14780 107-444 limits assumed): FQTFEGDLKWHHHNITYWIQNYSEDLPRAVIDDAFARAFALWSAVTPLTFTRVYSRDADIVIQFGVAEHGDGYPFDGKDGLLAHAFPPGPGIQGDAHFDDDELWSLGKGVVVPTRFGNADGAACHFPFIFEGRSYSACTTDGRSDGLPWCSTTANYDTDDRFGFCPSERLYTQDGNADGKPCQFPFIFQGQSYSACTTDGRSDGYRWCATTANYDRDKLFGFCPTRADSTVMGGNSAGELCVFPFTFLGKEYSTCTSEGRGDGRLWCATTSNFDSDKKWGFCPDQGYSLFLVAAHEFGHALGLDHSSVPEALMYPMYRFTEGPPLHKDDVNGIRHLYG

The IC50 is the point on the concentration scale where inhibition reaches its midpoint. A high value points to weaker potency. Turning to `O=P(O)(O)C(NS(=O)(=O)c1ccc(-c2ccccc2)cc1)P(=O)(O)O` [ML 115], the 50% inhibitory concentration (IC50) at MMP-9 was over 100 µM; on MMP-13, 0.74 ± 0.06 µM; on MMP-2 (OmniMMP 2.5 µM or OmniMMP RED 1 µM, pH 7.5, 1 mM CaCl2, 1 µM ZnCl2, 15 min preincubation, 37 °C), 0.14 ± 0.04 µM; at MMP-8, 0.4 ± 0.03 µM.
Take `Nc1ccc(S(=O)(=O)NC(P(=O)(O)O)P(=O)(O)O)cc1` [compound 1, (4-aminophenylsulfonylamino)methyl-1,1-bisphosphonic acid]: the IC50 on MMP-9 is over 100 µM; at MMP-13 it was 68.9 ± 10.2 µM; on MMP-2, 19 ± 3 µM; at MMP-8, 66 ± 8 µM.
Consider `O=P(O)(O)C(NS(=O)(=O)c1ccc2ccccc2c1)P(=O)(O)O` [compound 2, (2-naphthylsulfonylamino)methyl-1,1-bisphosphonic acid], for which the 50% inhibitory concentration (IC50) against MMP-9 is over 100 µM; against MMP-13, 9.6 ± 0.4 µM; against MMP-2 it was 18.7 ± 0.8 µM; on MMP-8 it was 26.8 ± 0.9 µM.
For `O=P(O)(O)C(NS(=O)(=O)c1cccc2ccccc12)P(=O)(O)O` [compound 3, (1-naphthylsulfonylamino)methyl-1,1-bisphosphonic acid], in that order: 57 ± 2 µM, 14.6 ± 0.8 µM, 15.2 ± 0.5 µM and 31.3 ± 1.2 µM.
The corresponding values for `O=C(Nc1ccccc1)Nc1ccc(S(=O)(=O)NC(P(=O)(O)O)P(=O)(O)O)cc1` [compound 4, (4-(3-phenylureido)phenylsulfonylamino)methyl-1,1-bisphosphonic acid] are 13.8 ± 0.6 µM, 15 ± 6 µM, 2.8 ± 0.6 µM and 48 ± 15 µM.
The corresponding values for `O=C1c2ccccc2C(=O)N1c1ccc(S(=O)(=O)NC(P(=O)(O)O)P(=O)(O)O)cc1` [compound 5, (4-(1,3-dioxoisoindolin-2-yl)phenylsulfonylamino)methyl-1,1-bisphosphonic acid] are 15 ± 6 µM, 18.1 ± 1.5 µM, 5.3 ± 0.4 µM and 45 ± 5 µM.
For `O=C(Nc1ccc(S(=O)(=O)NC(P(=O)(O)O)P(=O)(O)O)cc1)c1ccccc1` [compound 6, (4-benzamidophenylsulfonylamino)methyl-1,1-bisphosphonic acid], the IC50 against MMP-9 stood at 2.3 ± 0.1 µM; at MMP-13 it was 2 ± 0.7 µM; against MMP-2, 2.75 ± 0.35 µM; against MMP-8 it was 1.88 ± 0.03 µM.
For `O=C(Nc1cccc(S(=O)(=O)NC(P(=O)(O)O)P(=O)(O)O)c1)c1ccccc1` [compound 7, (3-benzamidophenylsulfonylamino)methyl-1,1-bisphosphonic acid], in that order: 50 ± 11 µM, 28 ± 4 µM, 9 ± 0.8 µM and 79 ± 8 µM.
`Cc1ccc(C(=O)Nc2ccc(S(=O)(=O)NC(P(=O)(O)O)P(=O)(O)O)cc2)cc1` [compound 8, (4-(4-methylbenzamido)phenylsulfonylamino)methyl-1,1-bisphosphonic acid]: the IC50 at MMP-9 stood at 0.67 ± 0.25 µM; on MMP-13, 3.3 ± 0.7 µM; at MMP-2 it was 0.958 ± 0.018 µM; at MMP-8, 0.78 ± 0.18 µM.
The corresponding values for `O=C(Nc1ccc(S(=O)(=O)NC(P(=O)(O)O)P(=O)(O)O)cc1)c1ccc(Br)cc1` [compound 9, (4-(4-bromobenzamido)phenylsulfonylamino)methyl-1,1-bisphosphonic acid] are 0.088 ± 0.012 µM, 0.14 ± 0.05 µM, 0.67 ± 0.16 µM and 0.66 ± 0.13 µM.
The corresponding values for `O=C(Nc1ccc(S(=O)(=O)NC(P(=O)(O)O)P(=O)(O)O)cc1)c1cccc(Br)c1` [compound 10, (4-(3-bromobenzamido)phenylsulfonylamino)methyl-1,1-bisphosphonic acid] are over 100 µM, 15.9 ± 1.9 µM, 4.2 ± 1.3 µM and 17 ± 4 µM.
For `O=C(Nc1ccc(S(=O)(=O)NC(P(=O)(O)O)P(=O)(O)O)cc1)c1ccc([N+](=O)[O-])cc1` [compound 11, (4-(4-nitrobenzamido)phenylsulfonylamino)methyl-1,1-bisphosphonic acid], in that order: 0.43 ± 0.1 µM, 0.61 ± 0.16 µM, 1.7 ± 0.3 µM and 0.46 ± 0.11 µM.
For `O=C(Nc1ccc(S(=O)(=O)NC(P(=O)(O)O)P(=O)(O)O)cc1)c1cccc2ccccc12` [compound 12, (4-(1-naphthamido)phenylsulfonylamino)methyl-1,1-bisphosphonic acid], the half-maximal inhibitory concentration (IC50) on MMP-9 is 21.5 ± 0.7 µM; against MMP-13 it was 12 ± 5 µM; against MMP-2, 2.7 ± 1 µM; at MMP-8, 25 ± 12 µM.
Consider `O=C(Nc1ccc(S(=O)(=O)NC(P(=O)(O)O)P(=O)(O)O)cc1)c1ccc2ccccc2c1` [compound 13, (4-(2-naphthamido)phenylsulfonylamino)methyl-1,1-bisphosphonic acid], for which the IC50 against MMP-9 is 76 ± 8 µM; against MMP-13, 9.3 ± 0.5 µM; against MMP-2, 3.9 ± 0.5 µM; against MMP-8, 16.6 ± 1.9 µM.
